Legend:
[1] = test system: mouse; conditions: Subchronic inhalation toxicity, other, Whole-Body, dose end: 13 week, group: systemic
[2] = test system: mouse; conditions: Subchronic oral toxicity in rodents, b6c3f1, Gavage/Intubation, dose end: 13 week, group: systemic, systemic / pathology microscopic / liver / [other] + systemic / pathology microscopic / liver / cytomegaly + systemic / pathology …
[3] = test system: mouse; conditions: Combined chronic toxicity/carcinogenicity, other, Inhalation, Whole-Body, dose end: 24 month, group: systemic
[4] = test system: rat; conditions: Carcinogenicity; fischer; Oral; Gavage/Intubation; dose end: 2 year; group: systemic; systemic / pathology microscopic / kidney / casts + systemic / pathology microscopic / kidney / degeneration + systemic / pathology …
[5] = test system: rat; conditions: Subchronic inhalation toxicity, fischer, Whole-Body, dose end: 13 week, group: systemic
[6] = test system: rat; conditions: Prenatal developmental toxicity study, sprague dawley, Oral, Gavage/Intubation, dose end: 15 GD
[7] = test system: mouse; conditions: Carcinogenicity; b6c3f1; Oral; Gavage/Intubation; dose end: 103 week; group: systemic; systemic / pathology microscopic / kidney / [other] + systemic / pathology microscopic / kidney / degeneration + systemic / pathology …
[8] = test system: rat; conditions: Subchronic oral toxicity in rodents, fischer, Gavage/Intubation, dose end: 13 week, group: systemic, systemic / in life observation / body weight / body weight gain + systemic / pathology microscopic / kidney / [other] + systemic / pathology…
[9] = test system: rat; conditions: Combined chronic toxicity/carcinogenicity, fischer, Inhalation, Whole-Body, dose end: 24 month, group: systemic
[10] = test system: mouse; conditions: Subchronic oral toxicity in rodents, B6C3F1, Gavage/Intubation, dose end: 13 week, group: systemic, systemic / pathology microscopic / liver / cytomegaly
[11] = test system: rat; conditions: Subchronic oral toxicity in rodents, fischer, Gavage/Intubation, dose end: 13 week, group: systemic, systemic / pathology microscopic / kidney / degeneration
[12] = systemic / in life observation / body weight / body weight + systemic / organ weight / liver / relative to body weight
[13] = systemic / pathology microscopic / liver / hepatoblastoma + systemic / pathology microscopic / liver / hepatocellular adenoma + systemic / …
[14] = systemic / in life observation / body weight / body weight
[15] = group: developmental, developmental / developmental malformation / bone / supernumerary + systemic / in life observation / body weight / fetal weight
[16] = group: maternal, systemic / in life observation / body weight / body weight gain + systemic / in life observation / food consumption / food consumption
[17] = systemic / organ weight / liver / absolute + systemic / organ weight / liver / relative to body weight + systemic / pathology microscopic / …

What does the source list for `Clc1ccc(Cl)cc1` [1,4-Dichlorobenzene]?
LEL [1, 12]: 25 ppm; NEL [1, 12]: < 25 ppm; NOAEL ([1]; systemic / organ weight / liver / absolute + systemic / organ weight / liver / relative to body weight + systemic / clinical chemistry / …): 120 ppm; LOAEL ([1]; systemic / organ weight / liver / relative to body weight + systemic / organ weight / liver / absolute + systemic / pathology microscopic / …): 270 ppm; LEL [2]: 600 mg/kg/day; LOAEL [2]: 600 mg/kg/day; NEL [2]: < 600 mg/kg/day; NOAEL [2]: < 600 mg/kg/day; LOAEL [3, 13]: > 300 ppm; NOAEL [3, 13]: ≥ 300 ppm; NEL ([3]; systemic / pathology microscopic / liver / hepatoblastoma + systemic / pathology microscopic / liver / hepatocellular carcinoma + systemic…): 20 ppm; LEL ([3]; systemic / pathology microscopic / nose / metaplasia): 75 ppm; LEL [4]: 150 mg/kg/day; LOAEL [4]: 150 mg/kg/day; NEL [4]: < 150 mg/kg/day; NOAEL [4]: < 150 mg/kg/day; LEL [5, 14]: 25 ppm; NEL [5, 14]: < 25 ppm; NOAEL ([5]; systemic / in life observation / body weight / body weight + systemic / organ weight / kidney / absolute + systemic / organ weight / kidney…): 120 ppm; LOAEL ([5]; systemic / organ weight / kidney / absolute + systemic / organ weight / kidney / relative to body weight + systemic / pathology microscopic…): 270 ppm; LEL ([6]; group: developmental, developmental / developmental malformation / bone / supernumerary): 500 mg/kg/day; LOAEL [6, 15]: > 1000 mg/kg/day; NEL [6, 15]: 250 mg/kg/day; NOAEL [6, 15]: ≥ 1000 mg/kg/day; LEL [6, 16]: 500 mg/kg/day; LOAEL [6, 16]: > 1000 mg/kg/day; NEL [6, 16]: 250 mg/kg/day; NOAEL [6, 16]: ≥ 1000 mg/kg/day; LEL [7]: 300 mg/kg/day; LOAEL [7]: 300 mg/kg/day; NEL [7]: < 300 mg/kg/day; NOAEL [7]: < 300 mg/kg/day; LEL [8]: 300 mg/kg/day; LOAEL [8]: 300 mg/kg/day; NEL [8]: < 300 mg/kg/day; NOAEL [8]: < 300 mg/kg/day; LOAEL [9, 17]: > 300 ppm; NEL [9, 17]: 20 ppm; NOAEL [9, 17]: ≥ 300 ppm; LEL ([9]; systemic / pathology microscopic / nose / [other]): 75 ppm; LEL [10]: 675 mg/kg/day; LOAEL [10]: 675 mg/kg/day; NEL [10]: 338 mg/kg/day; NOAEL [10]: 338 mg/kg/day; LEL [11]: 300 mg/kg/day; LOAEL [11]: 300 mg/kg/day; NEL [11]: 150 mg/kg/day; NOAEL [11]: 150 mg/kg/day
